# Target: T1, full-length human PKCι (Homo sapiens, UniProt P41743)
# T1 construct: Recombinant, full-length human PKCι expressed in Sf21 insect cells is also commercially available; purchased EMD Millipore; host or cells: Sf21 insect cells (baculovirus)
# T1 sequence (P41743 1-596): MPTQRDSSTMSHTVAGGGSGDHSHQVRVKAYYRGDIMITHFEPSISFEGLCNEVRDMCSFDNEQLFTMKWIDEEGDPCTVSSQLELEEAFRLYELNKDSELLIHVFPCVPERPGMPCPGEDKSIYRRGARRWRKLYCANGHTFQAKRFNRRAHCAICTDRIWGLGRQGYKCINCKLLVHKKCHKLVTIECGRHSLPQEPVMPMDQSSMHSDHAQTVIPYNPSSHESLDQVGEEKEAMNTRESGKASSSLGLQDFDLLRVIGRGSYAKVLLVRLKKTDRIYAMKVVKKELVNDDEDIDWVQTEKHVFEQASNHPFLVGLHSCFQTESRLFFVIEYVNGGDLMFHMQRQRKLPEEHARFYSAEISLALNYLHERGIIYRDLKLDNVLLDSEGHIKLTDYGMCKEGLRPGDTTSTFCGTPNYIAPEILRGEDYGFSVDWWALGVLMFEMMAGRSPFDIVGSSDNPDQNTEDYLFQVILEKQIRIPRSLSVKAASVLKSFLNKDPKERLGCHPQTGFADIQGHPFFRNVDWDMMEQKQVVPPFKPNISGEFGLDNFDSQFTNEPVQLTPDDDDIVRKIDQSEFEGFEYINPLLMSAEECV
# Experiment: PKCι IC50 IMAP fluorescence polarisation assay, full-length enzyme, 150 μM ATP
# Format: biochemical
# Settings: read-out: IC50 in IMAP assay against full length PKCi at 150 μM ATP
# Method in brief: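 IMAP fluorescence polarisation kinase assay: 15 pM baculovirus-expressed human PKCiota with 100 nM FAM-pseudosubstrate peptide and 150 μM ATP, 1 h at 25 °C. IMAP detection reagent then 2 h at 25 °C before FP measurement. Inhibition referenced to no-compound and no-enzyme controls for IC50 fitting.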
row,SMILES,IC50
1,"c1cncc(-c2cc3c(-c4nc(N5CCC6CNCCC65)c5c(C6CC6)cncc5n4)ccnc3[nH]2)c1 (stereo not shown) [Example 356, 5-Cyclopropyl-4-(octahydro-pyrrolo[3,2-c]pyridin-1-yl)-2-(2-pyridin-3-yl-1H-pyrrolo[2,3-b]pyridin-4-yl)-pyrido[3,4-d]pyrimidine]",< 100 nM
2,"COCc1ccccc1-c1cc2c(-c3nc(N[C@H]4CCNCC4(C)C)c4c(C5CC5)cncc4n3)ccnc2[nH]1 [Example 357, {5-Cyclopropyl-2-[2-(2-methoxymethyl-phenyl)-1H-pyrrolo[2,3-b]pyridin-4-yl]-pyrido[3,4-d]pyrimidin-4-yl}-((S)-3,3-dimethyl-piperidin-4-yl)-amine]",< 100 nM
3,"Fc1ccc(Cl)c(-c2cc3c(-c4nc(N5CCOC6CNCC65)c5c(C6CC6)cncc5n4)ccnc3[nH]2)c1 (stereo not shown) [Example 360, 2-[2-(2-Chloro-5-fluoro-phenyl)-1H-pyrrolo[2,3-b]pyridin-4-yl]-5-cyclopropyl-4-(hexahydro-pyrrolo[3,4-b][1,4]oxazin-4-yl)-pyrido[3,4-d]pyrimidine]",< 100 nM
4,"CC1(C)CNCC[C@@H]1Nc1nc(-c2ccnc3[nH]c(-c4cc(F)ccc4F)cc23)nc2cncc(C3CC3)c12 [Example 361, {5-Cyclopropyl-2-[2-(2,5-difluoro-phenyl)-1H-pyrrolo[2,3-b]pyridin-4-yl]-pyrido[3,4-d]pyrimidin-4-yl}-((S)-3,3-dimethyl-piperidin-4-yl)-amine]",< 100 nM
5,"Cc1cncc(-c2cc3c(-c4nc(N[C@H]5CCNCC5(C)C)c5c(C6CC6)cncc5n4)ccnc3[nH]2)c1 [Example 362, {5-Cyclopropyl-2-[2-(5-methyl-pyridin-3-yl)-1H-pyrrolo[2,3-b]pyridin-4-yl]-pyrido[3,4-d]pyrimidin-4-yl}-((S)-3,3-dimethyl-piperidin-4-yl)-amine]",< 100 nM
6,"CC1(C)CNCC[C@@H]1Nc1nc(-c2ccnc3[nH]c(C(=O)N4CCCCCC4)cc23)nc2cncc(C3CC3)c12 [Example 363, Azepan-1-yl-{4-[5-cyclopropyl-4-((S)-3,3-dimethyl-piperidin-4-ylamino)-pyrido[3,4-d]pyrimidin-2-yl]-1H-pyrrolo[2,3-b]pyridin-2-yl}-methanone]",< 100 nM
7,"Cc1cnc(F)c(-c2cc3c(-c4nc(N[C@H]5CCNCC5(C)C)c5c(C6CC6)cncc5n4)ccnc3[nH]2)c1 [Example 364, {5-Cyclopropyl-2-[2-(2-fluoro-5-methyl-pyridin-3-yl)-1H-pyrrolo[2,3-b]pyridin-4-yl]-pyrido[3,4-d]pyrimidin-4-yl}-((S)-3,3-dimethyl-piperidin-4-yl)-amine]",< 100 nM
8,"CC1(C)CNCC[C@@H]1Nc1nc(-c2ccnc3[nH]c(-c4cncc(F)c4)cc23)nc2cncc(C3CC3)c12 [Example 365, {5-Cyclopropyl-2-[2-(5-fluoro-pyridin-3-yl)-1H-pyrrolo[2,3-b]pyridin-4-yl]-pyrido[3,4-d]pyrimidin-4-yl}-((S)-3,3-dimethyl-piperidin-4-yl)-amine]",< 100 nM
9,"CC1(C)CNCC[C@@H]1Nc1nc(-c2ccnc3[nH]c(C(=O)N4CCC4)cc23)nc2cncc(C3CC3)c12 [Example 366, Azetidin-1-yl-[4-[5-cyclopropyl-4-[[(4S)-3,3-dimethyl-4-piperidyl]amino]pyrido [3,4-d]pyrimidin-2-yl]-1H-pyrrolo[2,3-b]pyridin-2-yl]methanone]",< 100 nM
10,"CC1(C)CNCC[C@@H]1Nc1nc(-c2ccnc3[nH]c(-c4cccnc4)cc23)nc2cncc(C3CCC3)c12 [Example 367, [5-Cyclobutyl-2-(2-pyridin-3-yl-1H-pyrrolo[2,3-b]pyridin-4-yl)-pyrido[3,4-d]pyrimidin-4-yl]-((S)-3,3-dimethyl-piperidin-4-yl)-amine]",< 100 nM
11,"COc1ccc(Cl)c(-c2cc3c(-c4nc(N[C@H]5CCNCC5(C)C)c5c(C6CC6)cncc5n4)ccnc3[nH]2)c1 [Example 368, {2-[2-(2-Chloro-5-methoxy-phenyl)-1H-pyrrolo[2,3-b]pyridin-4-yl]-5-cyclopropyl-pyrido[3,4-d]pyrimidin-4-yl}-((S)-3,3-dimethyl-piperidin-4-yl)-amine]",< 100 nM
12,"c1cncc(-c2cc3c(-c4nc(N[C@H]5CCCNCC5)c5c(C6CC6)cncc5n4)ccnc3[nH]2)c1 [Example 369, (S)-Azepan-4-yl-[5-cyclopropyl-2-(2-pyridin-3-yl-1H-pyrrolo[2,3-b]pyridin-4-yl)-pyrido[3,4-d]pyrimidin-4-yl]-amine]",< 100 nM
13,"CC1(C)CNCC[C@@H]1Nc1nc(-c2ccnc3[nH]c(-c4cncc(F)c4)cc23)nc2cncc(C3CCC3)c12 [Example 370, {5-Cyclobutyl-2-[2-(5-fluoro-pyridin-3-yl)-1H-pyrrolo[2,3-b]pyridin-4-yl]-pyrido[3,4-d]pyrimidin-4-yl}-((S)-3,3-dimethyl-piperidin-4-yl)-amine]",< 100 nM
14,"CC1(C)CNCC[C@@H]1Nc1nc(-c2ccnc3[nH]c(-c4ccncc4)cc23)nc2cncc(C3CC3)c12 [Example 371, 5-Cyclopropyl-N-[(4S)-3,3-dimethyl-4-piperidyl]-2-[2-(4-pyridyl)-1H-pyrrolo[2,3-b]pyridin-4-yl]pyrido[3,4-d]pyrimidin-4-amine]",< 100 nM
15,"CC1(C)CNCC[C@@H]1Nc1nc(-c2ccnc3[nH]c(-c4cccnc4)cc23)nc2cncc(C(F)(F)F)c12 [Example 372, N-[(4S)-3,3-dimethyl-4-piperidyl]-2-[2-(3-pyridyl)-1H-pyrrolo[2,3-b]pyridin-4-yl]-5-(trifluoromethyl) pyrido[3,4-d]pyrimidin-4-amine]",< 100 nM
16,"c1ccc2c(c1)oc1nccc(-c3nc(N4CCNCC4)c4c(C5CC5)cncc4n3)c12 [Example 373, 4-(5-Cyclopropyl-4-piperazin-1-yl-pyrido[3,4-d]pyrimidin-2-yl)-benzofuro[2,3-b]pyridine]",1000 to 10000 nM
17,"c1ccc2c(c1)oc1nccc(-c3nc(NC4CCNCC4)c4c(C5CC5)cncc4n3)c12 [Example 374, 2-(benzofuro[2,3-b]pyridin-4-yl)-5-cyclopropyl-N-(4-piperidyl)pyrido[3,4-d]pyrimidin-4-amine]",1000 to 10000 nM
18,"CN(c1nc(-c2ccnc3[nH]c4ccccc4c23)nc2cncc(C3CCC3)c12)C1CC2NC(=O)OC2C1 (stereo not shown) [Example 375, 5-{[5-Cyclobutyl-2-(9H-pyrido[2,3-b]indol-4-yl)-pyrido[3,4-d]pyrimidin-4-yl]-methyl-amino}-hexahydro-cyclopentoxazol-2-one]",100 to 1000 nM
19,"O=C1NC2CC(Nc3nc(-c4ccnc5[nH]c6ccccc6c45)nc4cncc(C5CCC5)c34)CC2O1 (stereo not shown) [Example 376, 5-[5-Cyclobutyl-2-(9H-pyrido[2,3-b]indol-4-yl)-pyrido[3,4-d]pyrimidin-4-ylamino]-hexahydro-cyclopentoxazol-2-one]",1000 to 10000 nM
20,"NC(=O)C1CC(Nc2nc(-c3ccnc4[nH]c5ccccc5c34)nc3cncc(C4CCC4)c23)CC1N (stereo not shown) [Example 377, 2-amino-4-[[5-cyclobutyl-2-(9H-pyrido[2,3-b]indol-4-yl)pyrido[3,4-d]pyrimidin-4-yl]amino]cyclopentane carboxamide]",100 to 1000 nM
21,"CC1(C)CNCC[C@@H]1Nc1nc(-c2ccnc(Nc3ccc4ccccc4n3)c2)nc2cncc(C3CC3)c12 [Example 378, {5-Cyclopropyl-2-[2-(quinolin-2-ylamino)-pyridin-4-yl]-pyrido[3,4-d]pyrimidin-4-yl}-((S)-3,3-dimethyl-piperidin-4-yl)-amine]",< 100 nM
22,"CC1(C)CNCC[C@H]1Nc1nc(-c2ccnc(Nc3cc4ccccn4n3)c2)nc2cncc(C3CCC3)c12 [Example 379, {5-Cyclobutyl-2-[2-(pyrazolo[1,5-a]pyridin-2-ylamino)-pyridin-4-yl]-pyrido[3,4-d]pyrimidin-4-yl}-((R)-3,3-dimethyl-piperidin-4-yl)-amine]",< 100 nM
23,"CC1(C)CNCC[C@@H]1Nc1nc(-c2ccnc(Nc3cc4ccccn4n3)c2)nc2cncc(C3CCC3)c12 [Example 380, {5-Cyclobutyl-2-[2-(pyrazolo[1,5-a]pyridin-2-ylamino)-pyridin-4-yl]-pyrido[3,4-d]pyrimidin-4-yl}-((S)-3,3-dimethyl-piperidin-4-yl)-amine]",< 100 nM
24,"CC1(C)CNCC[C@@H]1Nc1nc(-c2ccnc(Nc3cc(F)ccn3)c2)nc2cncc(C3CCC3)c12 [Example 382, {5-Cyclobutyl-2-[2-(4-fluoro-pyridin-2-ylamino)-pyridin-4-yl]-pyrido[3,4-d]pyrimidin-4-yl}-((S)-3,3-dimethyl-piperidin-4-yl)-amine]",< 100 nM
25,"COc1cccc(Nc2cc(-c3nc(N[C@H]4CCNCC4(C)C)c4c(C5CCC5)cncc4n3)ccn2)n1 [Example 383, {5-Cyclobutyl-2-[2-(6-methoxy-pyridin-2-ylamino)-pyridin-4-yl]-pyrido[3,4-d]pyrimidin-4-yl}-((S)-3,3-dimcthyl-piperidin-4-yl)-amine]",< 100 nM

# Source: patent US10414763B2 (CANCER RESEARCH TECHNOLOGY LIMITED, priority 2014, dated 2019)
